Measurements published in ChEMBL document CHEMBL3045990, “Inhibition of Cathepsin D protease activity by Punica granatum fruit peel extracts, isolates, and semisynthetic analogs” (Med Chem Res, 2013).
Converted amounts (≈) assume the structure as drawn. The source made the active and inactive calls. The calls are words filed in the database; no cut-off is given here.

Legend:
Cathepsin D [1] = molecular target: T1, Cathepsin D (Homo sapiens, UniProt P07339); assay: Inhibition of cathepsin D (unknown origin) using hemoglobin as substrate after 30 min by spectrophotometric analysis
T1 sequence (P07339 65-162 limits assumed): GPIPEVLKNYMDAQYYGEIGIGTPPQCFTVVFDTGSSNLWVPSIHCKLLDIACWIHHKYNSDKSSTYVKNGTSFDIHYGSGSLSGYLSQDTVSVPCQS
T1 sequence (P07339 169-412 limits assumed): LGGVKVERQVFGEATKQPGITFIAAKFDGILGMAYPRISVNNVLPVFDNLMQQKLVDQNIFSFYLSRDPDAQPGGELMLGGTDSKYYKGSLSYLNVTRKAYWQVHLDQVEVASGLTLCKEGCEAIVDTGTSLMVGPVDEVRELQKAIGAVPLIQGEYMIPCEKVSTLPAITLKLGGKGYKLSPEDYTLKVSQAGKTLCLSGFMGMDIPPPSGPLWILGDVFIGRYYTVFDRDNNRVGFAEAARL

MDA-MB-231 = assay: Cytotoxicity against Homo sapiens (human) MDA-MB-231 cells assessed as growth inhibition by MTT assay; assay type: functional, cell-based
Cathepsin D [2] = molecular target: T1, Cathepsin D; assay: Inhibition of cathepsin D (unknown origin) using hemoglobin as substrate at 20 ug/mL after 30 min by spectrophotometric analysis

SMILES | IC50 (Cathepsin D [1]) [µM] | growth inhibition (GI) (MDA-MB-231) [%] | inhibition (Cathepsin D [2]) | IC50 (MDA-MB-231; Homo sapiens, MDA-MB-231) [µg/mL]
C[C@H]1[C@H](C)CC[C@]2(C(=O)O)CC[C@]3(C)C(=CC[C@@H]4[C@@]5(C)CCC(=O)C(C)(C)[C@@H]5CC[C@]43C)[C@H]12 [URSONIC ACID] | 14.1 | <5 |  | 
CC[C@H](CC[C@@H](C)[C@H]1CC[C@H]2[C@@H]3CC=C4C[C@@H](O)CC[C@]4(C)[C@H]3CC[C@]12C)C(C)C |  |  | inactive | 
CC[C@H](CC[C@@H](C)[C@H]1CC[C@H]2[C@@H]3CC=C4CC(=O)CC[C@]4(C)[C@H]3CC[C@]12C)C(C)C [BETA-SITOSTENONE] | 9.4 |  |  | 
CC[C@H](CC[C@@H](C)[C@H]1CC[C@H]2[C@@H]3CC=C4C[C@@H](OC(C)=O)CC[C@]4(C)[C@H]3CC[C@]12C)C(C)C |  |  | inactive | 
COC(=O)[C@]12CC[C@@H](C)[C@H](C)[C@H]1C1=CC[C@@H]3[C@@]4(C)CC[C@H](O)C(C)(C)[C@@H]4CC[C@@]3(C)[C@]1(C)CC2 [METHYL URSOLATE] | 9.45 | <5 |  | 
C[C@H]1[C@H](C)CC[C@]2(C(=O)O)CC[C@]3(C)C(=CC[C@@H]4[C@@]5(C)CC[C@H](O)C(C)(C)[C@@H]5CC[C@]43C)[C@H]12 [URSOLIC ACID] | 18.2 | <5 |  | 
O=C(/C=C/C=C/c1ccc2c(c1)OCO2)N1CCCCC1 [PIPERINE] | 42.3 |  |  | 58.4 (≈ 205 µM)
CC(=O)O[C@H]1CC[C@]2(C)[C@H]3CC=C4[C@@H]5[C@@H](C)[C@H](C)CC[C@]5(C(=O)O)CC[C@@]4(C)[C@]3(C)CC[C@H]2C1(C)C |  |  | inactive | 
C[C@H]1[C@H](C)CC[C@]2(C(N)=O)CC[C@]3(C)C(=CC[C@@H]4[C@@]5(C)CC[C@H](O)C(C)(C)[C@@H]5CC[C@]43C)[C@H]12 |  |  | inactive | 
